This note sets out measurements from patent publication EP0608419A1, “TRANSOCULAR PREPARATION” (FUJISAWA PHARMACEUTICAL CO., LTD., priority 1991, dated 1993).

Where two headings read alike, the source gives them in different places.

Series [1] is described as follows: Concentration of test compound in eye tissue and blood after transocular administration of ophthalmic solution (EIA). The series is classed as in vivo, JW (clean) strain female rabbits. As to conditions: topical or ocular, read-out: Mean concentration in tissue ± S.E. Here is the method:
The resultant preparation was filled in an instillator.
(§1) c The experiment was carried out using JW (clean) strain female rabbits (body weight: 2.3 to 2.6 kg), each test group containing three rabbits. In this experiment, the rabbits were allowed to feed themselves and drink water freely both before and after each administration.
In case of transocular administration of ophthalmic solution, the rabbits were fixed on the cangue fixer and applied to each eye with one drop (about 0.05 ml) of the above ophthalmic solution using an instillator. The administration was repeated five times at 5-minute intervals. After the final administration, the rabbits were brought back to their cage. In these administrations, total dosage was 1 mg/rabbit. At 30 minutes after the final administration, blood was collected from the ear vein of the rabbits. Immediately, the rabbits were anesthetized by injection of "Nembutal" (Trademark) into the ear vein to bleed to death by cutting off their head and then the eyeballs were taken out therefrom.
(§2) The eyeballs taken out were washed with physiological saline solution under ice-cooling, and subsequently divided into various parts (i.e. cornea, aqueous humor in anterior chamber of eye, iris, lens, vitreum, retinochoroid and sclera). After measuring the weight of each part, phosphate buffer solution (pH 7.4) was added thereto and then the parts were homogenized using a glass-made "Potter-type homogenizer" (Trademark).
(§3) The determination of a concentration of the test compound in each sample was carried out by the two-step Enzyme-linked immunosorbent assay (EIA) using purified polyclonal antibody against the test compound.

The nature of series [2]: Concentration of test compound in eye tissue and blood after continuous subcutaneous administration by implanted mini-pump (EIA). The series is classed as in vivo, JW (clean) strain female rabbits. As to conditions: sc, 2.5 mg/animal/day, read-out: Mean concentration in tissue ± S.E. Here is the method:
as §1
On the other hand, in case of continuous subcutaneous administration, after the rabbits were anesthetized by injection of "Nembutal" (Trademark, 0.5 to 0.6 ml/kg i.v.), they were clipped their back side hair and then were incised their clipped parts about 3 cm long with a surgical knife. […] Subsequently, the incised parts of the rabbits were sutured with silk thread, and then the rabbits were brought back to their cage. In this case, total dosage was 2.5 mg/rabbit/day. The day when the mini-pump was implanted was defined as "Day 0". On Day 5, the rabbits were anesthetized by injection of "Nembutal" (Trademark) into the ear vein to bleed to death, and then the eyeballs were taken out therefrom. In this experiment, blood was collected for measuring a concentration of the test compound in blood on each Day 1, 4 and 5.
as §2, §3

Series [3] has as its system intraocular vascularization. Description: Suppression of induced intraocular vascularization (cupric chloride pellet and aminoadipic acid) by eye drops, histological observation. The series is classed as in vivo, rabbits (Dutch). As to conditions: 2 mg/ml in isotonic phosphate buffer solution (pH 8), eye drops twice a day for 12 days; both eyes of five rabbits. The protocol: Both eyes of five rabbits (Dutch) were used for this experiment. Into the vitreum of the rabbits, 0.2 ml of sterilized air was injected. […] At the same time as transplantation, 1 mg of aminoadipic acid dissolved in 0.2 ml of physiological saline solution was injected into the vitreum, by which vascularization in the eyes (i.e. in the vitreum) was induced. Twenty-four hours later, isotonic phosphate buffer solution (pH 8, 2 mg/ml) which contained the same test compound used in Example 1 was administered drop by drop to each rabbit. The same administration was repeated twice a day for consecutive 12 days. After the final administration on the 12th day, the eyeballs were taken out therefrom and observed histologically to find whether the vascularization was suppressed or not.

For `CNC(=O)OC1CCC2(CO2)C(C2(C)OC2CC=C(C)C)C1OC` (stereo not drawn) [test compound, 6-Methylcarbamoyloxy-5-methoxy-4-[2-methyl-3-(3-methyl-2-butenyl)oxiranyl]-1-oxaspiro[2.5]octane], the concentration at 0.5 h in series [1] (Aqueous humor in anterior chamber of eye, 30 min. after transocular administration of ophthalmic solution (total 1 mg/rabbit), n = 6) is 141 ± 59.7 ng/g; in series [1] (Cornea, 30 min. after transocular administration of ophthalmic solution (2 mg/ml, total 1 mg/rabbit), n = 6), 1.56 ± 0.73 ng/g; in series [1] (Lens, 30 min. after transocular administration of ophthalmic solution (total 1 mg/rabbit), n = 6), 12.4 ± 2.11 ng/g; in series [1] (Retinochoroid, 30 min. after transocular administration of ophthalmic solution (total 1 mg/rabbit), n = 6) it was 40.2 ± 9.4 ng/g; in series [1] (Sclera, 30 min. after transocular administration of ophthalmic solution (total 1 mg/rabbit), n = 6), 0.78 ± 0.78 ng/g; in series [1] (Vitreum, 30 min. after transocular administration of ophthalmic solution (total 1 mg/rabbit), n = 6), 9.99 ± 2.37 ng/g. In addition, the concentration at 0.5 h in series [1] (Whole blood (n = 3), 30 min. after transocular administration of ophthalmic solution (total 1 mg/rabbit)) was determined as 19.6 ± 4.22 ng/g. The concentration at 120 h in series [2] (Aqueous humor in anterior chamber of eye, Day 5 of continuous subcutaneous administration (2.5 mg/rabbit/day), n = 6) worked out at 0.79 ± 0.62 ng/g; in series [2] (Cornea, Day 5 of continuous subcutaneous administration (2.5 mg/rabbit/day) by mini-pump, n = 6), 2.87 ± 0.52 ng/g; in series [2] (Lens, Day 5 of continuous subcutaneous administration (2.5 mg/rabbit/day), n = 6) it was 0.2 ± 0.08 ng/g; in series [2] (Retinochoroid, Day 5 of continuous subcutaneous administration (2.5 mg/rabbit/day), n = 6), 0.6 ± 0.26 ng/g; in series [2] (Sclera, Day 5 of continuous subcutaneous administration (2.5 mg/rabbit/day), n = 6), 1.06 ± 0.27 ng/g; in series [2] (Vitreum, Day 5 of continuous subcutaneous administration (2.5 mg/rabbit/day), n = 6), 1.19 ± 0.23 ng/g. Besides, the concentration at 120 h in series [2] (Whole blood, Day 5 (n=3), continuous subcutaneous administration (2.5 mg/rabbit/day)) stood at 22.5 ± 4.12 ng/g. Moreover, in series [2] (Whole blood, Day 1 (n=3), continuous subcutaneous administration (2.5 mg/rabbit/day)), the concentration at 24 h amounted to 30.6 ± 6.13 ng/g. In series [2] (Whole blood, Day 4 (n=3), continuous subcutaneous administration (2.5 mg/rabbit/day)), the concentration at 96 h was found to be 13.7 ± 9.74 ng/g. Further, in series [3], the “eyeballs in which intraocular vascularization was suppressed thoroughly” value is given as 42.9%. Further, the “eyeballs in which the vascularization was suppressed partially or thoroughly” value in series [3] turned out to be 85.7%.
